Measurements published in patent US12655127B2, “Fused ring compound as Wee-1 inhibitor” (WIGEN BIOMEDICINE TECHNOLOGY (SHANGHAI) CO., LTD., priority 2021, dated 2026).

How the values were obtained:
MIA PaCa-2 cells [1] = experiment: In-vitro anti-proliferative activity in combination with gemcitabine on MIA PaCa-2 cells; format: cell-based; conditions: with 20 nM gemcitabine, 72 h after dosing, intracellular ATP content
Experimental: (§1) MIA PaCa-2 cells were seeded on a 384-well plate at 3000 cells/well, and 20 nM gemcitabine was added. After overnight adherence culture, DMSO or the compounds serially diluted 1:5 from 100 nM were added. The viability was assessed 72 h after dosing by measuring the intracellular ATP content. The inhibition percentage of viable cells by the compounds was calculated by comparing with the DMSO group, and the IC50 value was calculated.

MIA PaCa-2 cells [2] = experiment: In-vitro anti-proliferative activity on MIA PaCa-2 cells; format: cell-based; conditions: Homo sapiens, 72 h after dosing, intracellular ATP content
Experimental: as §1, with “cells/well.” for “cells/well, and 20 nM gemcitabine was added.”, “5 μM” for “100 nM”

[3] = tested on: HT29 subcutaneous xenograft tumor; experiment: Mouse HT29 subcutaneous xenograft tumor model; format: in vivo; conditions: for TGI: day 18, nude mouse HT29 xenograft; for Tumor volume on day 1 of treatment (mm^3) / Tumor volume on day 18 of treatment (mm^3): nude mouse HT29 xenograft
Experimental: HT29 is a colon cancer cell. Each nude mouse was grafted subcutaneously with 5×10^6 HT29 cells. When the tumor grew to 100-200 mm^3, the compound was administered orally once a day alone or in combination with 15 mg/kg of gemcitabine injected intraperitoneally once a week, and the tumor volume was measured twice a week and at the end of treatment. Tumor growth inhibition of the compound was calculated according to the following equation: tumor growth inhibition (TGI)=1−(tumor volume on day 18 in treatment group−tumor volume on day 1 in treatment group)/(tumor volume on day 18 in vehicle control group−tumor volume on day 1 in treatment group).

[4] = target: recombinant protein Wee-1 (Homo sapiens, UniProt P30291); experiment: Inhibition of enzymatic activity of recombinant protein Wee-1 (HTRF); format: biochemical
Experimental: The inhibitory effect of the compounds on the enzyme activity of recombinant protein Wee-1 was determined by HTRF. The procedures are as follows:
After DMSO or serially diluted compounds (up to 200 nM, 1:5 serially diluted) and recombinant proteins were co-incubated in a kinase buffer at 37° C. for 30 min Fluorescein-PolyGAT and ATP were added, and then the reaction was started by the addition of a substrate. After incubation at room temperature for 90 min, an antibody and a detection solution were added, and after further incubation at room temperature for 60 min, fluorescence values were detected (excitation wavelength: 340 nm, emission wavelengths: 495 and 520 nm). The 520 nm/495 nm fluorescence intensity ratio value was calculated, and compared with that of the DMSO group, and then the inhibition percentages and IC50 values of the compounds were calculated.

[5] = 30 mg/kg orally once a day in combination with 15 mg/kg of gemcitabine i.p. once a week
[6] = monotherapy, 30 mg/kg orally once a day
[7] = gemcitabine 15 mg/kg intraperitoneally once a week

Chain of recombinant protein Wee-1 (P30291 whole entry): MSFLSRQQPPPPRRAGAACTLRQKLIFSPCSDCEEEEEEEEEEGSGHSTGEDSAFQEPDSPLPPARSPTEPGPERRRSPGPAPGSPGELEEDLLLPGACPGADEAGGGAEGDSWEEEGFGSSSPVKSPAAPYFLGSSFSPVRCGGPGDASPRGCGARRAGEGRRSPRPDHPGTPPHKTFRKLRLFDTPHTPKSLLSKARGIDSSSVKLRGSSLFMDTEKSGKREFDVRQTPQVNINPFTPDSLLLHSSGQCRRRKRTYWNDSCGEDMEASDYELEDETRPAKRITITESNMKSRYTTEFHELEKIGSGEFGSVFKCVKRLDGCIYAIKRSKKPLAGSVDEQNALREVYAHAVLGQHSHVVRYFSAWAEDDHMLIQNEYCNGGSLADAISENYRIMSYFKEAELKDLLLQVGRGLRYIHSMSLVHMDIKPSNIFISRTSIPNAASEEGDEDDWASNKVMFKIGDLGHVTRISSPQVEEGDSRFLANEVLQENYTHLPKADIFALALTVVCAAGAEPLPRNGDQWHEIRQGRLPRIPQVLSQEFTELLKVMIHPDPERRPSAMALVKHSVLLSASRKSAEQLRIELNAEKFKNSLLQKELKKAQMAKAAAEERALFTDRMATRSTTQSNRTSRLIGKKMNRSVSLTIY

Row | IC50 (MIA PaCa-2 cells [1]) | IC50 (MIA PaCa-2 cells [2]) | IC50 [4] | SMILES | also measured
1 | 0.245 nM | 259 nM | ≤ 10 nM | CN1Cc2cc(Nc3ncc(C#N)c(Nc4cccc(N=S(C)(C)=O)n4)n3)cc3c2[C@H](CCC3)C1 (single isomer, unassigned) [Compound 2] | TGI [3, 5]: 109%; Tumor volume on day 1 of treatment (mm^3) [3, 5]: 112 mm^3; Tumor volume on day 18 of treatment (mm^3) [3, 5]: 11 mm^3; TGI [3, 6]: 99%; Tumor volume on day 1 of treatment (mm^3) [3, 6]: 112 mm^3; Tumor volume on day 18 of treatment (mm^3) [3, 6]: 115 mm^3
2 | 6.4 nM | 1090 nM | ≤ 10 nM | CN1Cc2cc(Nc3ncc(C#N)c(Nc4cccc(N=S(C)(C)=O)n4)n3)cc3c2[C@@H](CCC3)C1 (single isomer, unassigned) [Compound 3] | 
3 | 1.9 nM | 236 nM | ≤ 10 nM | CN1Cc2cc(Nc3ncc(C#N)c(Nc4cccc(N=S(C)(C)=O)n4)n3)cc3c2C(CCC3)C1 (centres unmarked) [Compound 1] | 
4 | 2.4 nM | 968 nM | ≤ 10 nM | CN1Cc2cc(Nc3ncc(C#N)c(Nc4cccc(N=S(C)(C)=O)n4)n3)cc3c2C(C)(CCC3)C1 (centres unmarked) [Compound 4] | 
5 | 2.1 nM | 1180 nM | ≤ 10 nM | CN1Cc2cc(Nc3ncc(C#N)c(Nc4cccc(N=S(C)(C)=O)n4)n3)cc3c2[C@](C)(CCC3)C1 [Compound 5] | 
6 | 5.3 nM | 910 nM | ≤ 10 nM | CN1Cc2cc(Nc3ncc(C#N)c(Nc4cccc(N=S(C)(C)=O)n4)n3)cc3c2[C@@](C)(CCC3)C1 [Compound 6] | 
7 | > 100 nM | > 5000 nM | 10 to 50 nM | COc1c(Nc2ncc(C#N)c(Nc3cccc(N=S(C)(C)=O)n3)n2)cc2c3c1CCCC3CN(C)C2 (centres unmarked) [Compound 49] | 
8 | > 100 nM | 148 nM | 10 to 50 nM | CN1Cc2cc(Nc3ncc(C#N)c(Nc4cccc(N=S(C)(C)=O)n4)n3)cc3c2C(CC3)C1 (centres unmarked) [Compound 50] | 
9 | 3.5 nM | 400 nM | ≤ 10 nM | CN1Cc2cc(Nc3ncc(C#N)c(Nc4cccc(N=S(C)(C)=O)n4)n3)cc3c2C(CCO3)C1 (centres unmarked) [Compound 64] | 
10 | 1.6 nM | 184 nM | ≤ 10 nM | CN1Cc2cc(Nc3ncc(C#N)c(Nc4cccc(N=S(C)(C)=O)n4)n3)cc3c2C1CCC3 (centres unmarked) [Compound 87] | 
11 | 2.1 nM | 441 nM | ≤ 10 nM | CN1Cc2cc(Nc3ncc(C#N)c(Nc4cncc(N=S(C)(C)=O)n4)n3)cc3c2C(CCC3)C1 (centres unmarked) [Compound 105] | 
12 | 11 nM | 225 nM | ≤ 10 nM | CN1Cc2cc(Nc3ncc(C#N)c(Nc4cc5ccccc5c(N=S(C)(C)=O)n4)n3)cc3c2C(CCC3)C1 (centres unmarked) [Compound 108] | 
13 | 1.1 nM | 186 nM |  | CN1Cc2cc(Nc3ncc(C#N)c(Nc4ccc(F)c(N=S(C)(C)=O)n4)n3)cc3c2C(CCC3)C1 (centres unmarked) [Compound 110] | 
14 | 29 nM | > 5000 nM | ≤ 10 nM | CN1Cc2cc(Nc3ncc(C#N)c(Nc4nc(N=S(C)(C)=O)ccc4F)n3)cc3c2C(CCC3)C1 (centres unmarked) [Compound 112] | 
15 | 1.4 nM | 89 nM | ≤ 10 nM | COc1ccc(Nc2nc(Nc3cc4c5c(c3)CN(C)CC5CCC4)ncc2C#N)nc1N=S(C)(C)=O (centres unmarked) [Compound 121] | 
16 | 26 nM | > 5000 nM | ≤ 10 nM | CN1Cc2cc(Nc3ncc(C#N)c(Nc4cccc(P(C)(C)=O)n4)n3)cc3c2C(CCC3)C1 (centres unmarked) [Compound 137] | 
17 | 1.5 nM | 72 nM | ≤ 10 nM | Cc1ccc(Nc2nc(Nc3cc4c5c(c3)CN(C)CC5CCC4)ncc2C#N)nc1N=S(C)(C)=O (centres unmarked) [Compound 295] | 
18 | 3.1 nM | 161 nM | ≤ 10 nM | CN1Cc2cc(Nc3ncc(C#N)c(Nc4ccc(Cl)c(N=S(C)(C)=O)n4)n3)cc3c2C(CCC3)C1 (centres unmarked) [Compound 296] | 
19 |  |  |  | Nc1ccn([C@@H]2O[C@H](CO)[C@@H](O)C2(F)F)c(=O)n1 [Gemcitabine, gemcitabine, reference compound] | TGI [3, 7]: 57%; Tumor volume on day 1 of treatment (mm^3) [3, 7]: 112 mm^3; Tumor volume on day 18 of treatment (mm^3) [3, 7]: 539 mm^3
